Source: the supplement of paper PMC10307832

Key:
Assay in all cases: relative viability (nuclei count vs DMSO), 5 days (fraction); higher = more cells survive
[1] = compound: CCn1c(-c2nonc2N)nc2cnc(Oc3cccc(NC(=O)c4ccc(OCCN5CCOCC5)cc4)c3)cc21 + COc1cccc2cc(-c3nc([C@H]4CC[C@H](C(=O)O)CC4)n4ncnc(N)c34)[nH]c12 [OSI-027] (partner 0.5 µM)
Procedure, shortened: (§1)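 After 5 days of treatment, lung cancer cells in 1536-well plates were fixed and stained in a single step (final 0.05% Triton X-100, 1% formaldehyde, 1 ug/ml Hoechst) and their nuclei counted on 4× images. Treatment had been applied by pin tool the day after seeding as one drug alone or as a fixed anchor-drug dose with five library-drug doses (not always all listed) in √10 steps. Relative viability is the nuclei count of treated wells divided by that of vehicle wells, and values are medians of duplicate plates.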

[2] = compound: CCC1=CN=CN=C1N2CCN(CC2)CC3=NC4=C(N3)C=C(C=C4)C(F)(F)F + CCNC(=O)c1noc(-c2cc(C(C)C)c(O)cc2O)c1-c1ccc(CN2CCOCC2)cc1 [Luminespib] (partner 0.01 µM)
Procedure, shortened: as §1

[3] = compound: CCC1=CN=CN=C1N2CCN(CC2)CC3=NC4=C(N3)C=C(C=C4)C(F)(F)F + Cc1nc(Nc2ncc(C(=O)Nc3c(C)cccc3Cl)s2)cc(N2CCN(CCO)CC2)n1 [Dasatinib] (partner 0.075 µM)
Procedure, shortened: as §1

[4] = compound: N=C1NC(=O)/C(=C/c2ccc(O)cc2)S1 [Mirin] + O=C(CCCCCCC(=O)Nc1ccccc1)NO [Vorinostat] (partner 1 µM)
Procedure, shortened: as §1

Cell Line | relative viability ([1]; first compound 0.04 µM) | relative viability ([1]; first compound 0.1265 µM) | relative viability ([1]; first compound 0.4 µM) | relative viability ([1]; first compound 1.265 µM) | relative viability ([1]; first compound 4 µM) | relative viability ([2]; first compound 0.04 µM) | relative viability ([2]; first compound 0.1265 µM) | relative viability ([2]; first compound 0.4 µM) | relative viability ([2]; first compound 1.265 µM) | relative viability ([2]; first compound 4 µM) | relative viability ([3]; first compound 0.04 µM) | relative viability ([3]; first compound 0.1265 µM) | relative viability ([3]; first compound 0.4 µM) | relative viability ([3]; first compound 1.265 µM) | relative viability ([3]; first compound 4 µM) | relative viability ([4]; first compound 0.25 µM) | relative viability ([4]; first compound 0.7906 µM) | relative viability ([4]; first compound 2.5 µM) | relative viability ([4]; first compound 7.906 µM) | relative viability ([4]; first compound 25 µM)
LXF-289 | 0.924 | 0.758 | 0.208 | 0.443 | 0.361 | 0.701 | 0.64 | 0.685 | 0.63 | 0.676 | 0.161 | 0.21 | 0.242 | 0.191 | 0.209 | 0.727 | 0.818 | 0.713 | 0.8 | 0.836
NCI-H23 | 0.614 | 0.768 | 0.249 | 0.534 | 0.525 | 0.223 | 0.219 | 0.21 | 0.191 | 0.213 | 0.794 | 0.897 | 0.653 | 0.769 | 0.865 | 0.624 |  | 0.565 | 0.54 | 0.601
NCI-H322M | 0.826 | 0.667 | 0.416 | 0.562 | 0.611 | 0.988 | 0.846 | 0.808 | 0.805 | 0.918 | 0.261 | 0.257 | 0.258 | 0.239 | 0.249 | 1 | 0.87 | 0.93 | 1.28 | 1.11
NCI-H358 | 0.84 | 0.73 | 0.579 | 0.816 | 0.523 | 0.288 | 0.263 | 0.339 |  | 0.194 | 0.234 | 0.147 | 0.179 | 0.14 | 0.172 | 0.698 | 0.729 | 0.698 | 0.737 | 0.453
NCI-H441 | 0.772 | 0.721 |  | 0.513 | 0.472 | 0.387 | 0.345 | 0.315 | 0.358 | 0.396 | 0.761 | 0.545 | 0.581 | 0.668 | 0.605 | 0.805 | 0.933 | 0.806 | 0.752 | 0.896
NCI-H460 | 0.741 | 0.561 | 0.364 | 0.163 | 0.0569 | 0.0311 | 0.0367 | 0.0386 | 0.0407 | 0.0253 | 0.583 | 0.467 | 0.544 | 0.472 | 0.541 | 0.709 | 0.824 | 0.666 | 0.687 | 0.685
NCI-H520 | 0.354 | 0.36 | 0.279 | 0.332 | 0.224 | 0.243 | 0.256 | 0.264 |  | 0.199 | 0.212 | 0.181 | 0.224 | 0.206 | 0.226 | 0.67 | 0.807 | 0.729 | 0.561 | 0.527
